Where two headings read alike, the source gives them in different places.
Experiments:
[1] = tested on: Murine RAW 264.7 macrophage-like cells; conditions: nicotine 0.1-100 µM, 5 min before LPS 500 ng/ml, medium collected after 20 hr (FIG. 15)
Experimental: Experiments were performed to determine whether the inhibitory effect of cholinergic agonists on proinflammatory cytokines applied to HMG-1. Murine RAW 264.7 macrophage-like cells (American Type Culture Collection, Rockville, Md., USA) were grown in culture under DMEM supplemented with 10% fetal bovine serum and 1% glutamine. When the cells were 70-80% confluent, the medium was replaced by serum-free OPTI-MEM 1 medium. […] Culture medium was collected after 20 hr. The culture medium was concentrated with a Centricon T 10 filter, then analyzed by western blot, using an anti-HMG-1polyclonal antisera (WO 00/47104) and standard methods. Band densities were determined using a Bio-Rad Imaging densitometer.

[2] = tested on: human macrophage cultures; experiment: TNF release from LPS-stimulated human macrophage cultures (TNF ELISA); assay type: cell-based; conditions: for EC50: Macrophage, human macrophages, LPS 100 ng/ml 4 h, n=9, read-out: E.C.50, effective concentration that inhibited 50% of the TNF response
TNF mRNA = experiment: RNase protection assay of TNF mRNA in LPS-stimulated macrophages; assay type: cell-based, human; conditions: agonist 100 µM, 5 min before 2 hour LPS 100 ng/ml (FIG. 2)
IL-1β = IL-1β release from LPS-stimulated human macrophage cultures (ELISA); assay type: cell-based; conditions: ACh with pyridostigmine bromide 1 mM, LPS 100 ng/ml, 20 hours (FIG. 5)
Experimental: (§1) To assess specificity, the release of other macrophage-derived cytokines was measured in LPS-stimulated macrophage cultures treated with acetylcholine. In those experiments, human macrophage cultures were incubated with ACh at the indicated concentrations in the presence of pyridostigmine bromide (1 mM) and LPS (100 ng/ml) for 20 hours. IL-1β (FIG. 5), IL-6 (FIG. 6) and IL-10 (FIG. 8) levels were measured in media using commercially available ELISA kits (R&D Systems Inc., Minneapolis, Minn.). IL-18 (FIG. 7) levels were determined by specific ELISA (Medical & Biological Laboratories Co., Ltd., Nagoya, Japan). Each sample was analyzed in triplicate. Data are expressed as Mean.+−.SEM from 4 separate experiments using macrophages prepared from 4 separate healthy donors.

macrophage cultures = experiment: MTT staining and Trypan blue exclusion of macrophage cultures treated with LPS and acetylcholine; assay type: cell-based, human; conditions: macrophage cultures treated with LPS and acetylcholine (not shown)
[3] = tested on: differentiated human macrophages; experiment: Acetylcholine suppression of cytokine synthesis (TNF), 'our own studies' compared with macrophage data; assay type: cell-based; conditions: printed as differentiated human macrophages, n=3, read-out: E.C.50 for inhibiting TNF
IL-6 = IL-6 release from LPS-stimulated human macrophage cultures (ELISA); assay type: cell-based; conditions: ACh with pyridostigmine bromide 1 mM, LPS 100 ng/ml, 20 hours (FIG. 6)
Experimental: as §1

IL-1β mRNA = IL-1β mRNA levels, colorimetric microplate assay (Quantikine mRNA); assay type: cell-based, human; conditions: acetylcholine 100 nM, LPS 2 hours; n=3; LPS alone 1974
Excerpt: (§2) The molecular mechanism of acetylcholine inhibition of IL-1β and IL-6 was investigated further by measuring gene-specific mRNA levels with biotin-labeled capture oligonucleotide probes in a calorimetric microplate assay (Quantikine mRNA, R&D Systems, Inc., Minneapolis, Minn.).

[4] = tested on: nicotinic or muscarinic acetylcholine receptors
IL-10 = IL-10 release from LPS-stimulated human macrophage cultures (ELISA); assay type: cell-based; conditions: ACh with pyridostigmine bromide 1 mM, LPS 100 ng/ml, 20 hours (FIG. 8)
Experimental: as §1

TNF = TNF immunohistochemistry of cell-associated TNF in human macrophage cultures; assay type: cell-based; conditions: ACh 100 µM, 5 min before LPS 100 ng/ml, fixed after 2 hours (FIG. 3)
Experimental: TNF immunohistochemistry was performed as follows. Human macrophages were differentiated as described above, and grown on glass chamber slides (Nunc, Naperville, Ill.). Slides were incubated in a blocking solution (1% BSA, 5% normal goat serum, 0.3% Triton X-100 in PBS) for 1 hour at room temperature and then incubated for 24 hours at 4° C. with a primary mouse anti-human TNF monoclonal antibody (Genzyme, Cambridge, Mass.) diluted 1:100 in PBS containing 0.3% Triton X-100, 0.1% BSA, and 3% normal goat serum. Washed sections were incubated for 2 hours with secondary biotinylated anti-mouse IgG (1:200, Vector Laboratories, Inc., Burlingame, Calif.). The reaction product was visualized with 0.003% hydrogen peroxide and 0.05% 3,3′-diaminobenzidine tetrahydrochloride as a chromogen. Negative controls were incubated in the absence of primary antibodies (not shown). Slides were analyzed on a light microscope (Olympus BX60, Japan) using a MetaMorth Imaging System (Universal Imaging Co., West Chester, Pa.).
To determine whether acetylcholine inhibited macrophage TNF synthesis or macrophage TNF release, monoclonal anti-TNF antibodies were used to label cell-associated TNF in human macrophage cultures. In those experiments (FIG. 3), cells were exposed to either ACh (100 µM), either alone or in the presence of pyridostigmine bromide (1 mM), five minutes before LPS (100 ng/ml) treatment. […]

IL-18 = IL-18 release from LPS-stimulated human macrophage cultures (ELISA); assay type: cell-based; conditions: ACh with pyridostigmine bromide 1 mM, LPS 100 ng/ml, 20 hours (FIG. 7)
Experimental: as §1

IL-6 mRNA = IL-6 mRNA levels, colorimetric microplate assay (Quantikine mRNA); assay type: cell-based, human; conditions: LPS-stimulated macrophages; n=3; LPS alone 1716
Excerpt: as §2

[5] = ACh with pyridostigmine bromide 1 mM
[6] = human macrophage cultures, LPS 100 ng/ml for 4 hours (FIG. 1)

## CN1CCCC1c1cccnc1 (centres unmarked) [nicotine]
[1]
  HMG-1 production: inhibited HMG-1 production in a dose-dependent manner
[2]; [5]
  EC50: 0.0083 µM
[2]; [6]
  inhibition of TNF release: inhibited TNF release in a dose dependent manner
TNF mRNA
  TNF mRNA levels: do not reduce LPS-stimulated TNF mRNA levels

## C[N+](C)(C)CCOC(N)=O [carbachol]
[2]; [6]
  inhibition of TNF release: Inhibition of TNF was also observed

## C[C@@H]1O[C@H](C[N+](C)(C)C)C[C@H]1O [muscarine]
[2]; P<0.01 vs nicotine or acetylcholine
  EC50: 42.4 µM
[2]; [6]
  inhibition of TNF release: inhibited TNF release in a dose dependent manner
TNF mRNA
  TNF mRNA levels: do not reduce LPS-stimulated TNF mRNA levels

## CC(=O)OCC[N+](C)(C)C.[Cl-] [acetylcholine, acetylcholine chloride]
IL-1β
  IL-1β release: dose-dependently inhibits the release
Macrophage cultures
  cytotoxicity (MTT, Trypan blue exclusion): not due to cytotoxicity
[3]
  EC50: 0.8 µM
IL-6
  IL-6 release: dose-dependently inhibits the release
[2]; [5]
  EC50: 0.0202 µM
[2]; [6]
  inhibition of TNF release: inhibited TNF release in a dose dependent manner
[2]; macrophage culture media conditioned by exposure to LPS for 20 hours (not shown)
  inhibition of TNF release: Comparable inhibition of TNF release
IL-1β mRNA
  acetylcholine-treated LPS-stimulated IL-1β mRNA: 2128 attomole/ml
[4]
  inhibition of TNF release: 80%
IL-10
  IL-10 release: does not prevent the constitutive release
TNF
  LPS-stimulated TNF immunoreactivity in macrophages: significantly attenuated
IL-18
  IL-18 release: dose-dependently inhibits the release
TNF mRNA
  TNF mRNA levels: did not decrease
IL-6 mRNA
  acetylcholine-treated LPS-stimulated IL-6 mRNA: 1872 attomole/ml

## CN1[C@@H]2CC[C@H]1C[C@@H](OC(=O)C(CO)c1ccccc1)C2 (some centres unmarked) [atropine]
[4]; without acetylcholine (not shown)
  TNF production in vehicle-treated cultures: Neither atropine nor α-conotoxin altered TNF production
